Assay results: article PMC4365270 (Cancer Chemotherapy and Pharmacology, 2015)
Where two headings read alike, the source gives them in different places.

Legend:
[1] = Plasma pharmacokinetics of DEBIO1143 in patients (LC-MS/MS); type: in vivo, human; conditions: human, plasma
Protocol: (§1) Pharmacokinetic samples were taken from all patients on day 1 (predose, 0.5, 1, 2, 3, 4, 6, 8, 12, 18 h postdose) and on day 5 (predose, 0.5, 1, 2, 3, 4, 6, 8 h postdose) of the first cycle. In addition, for exploratory PD analysis of IAP inhibition and activation of apoptosis, optional skin and tumor biopsies were taken from consenting patients on days 1 (predose) and 5 and blood samples on day 1 (predose, 1, 3, 6, 8, 12 h postdose), day 2 (predose), and day 5 (3 h postdose).
C max and t max were determined by direct assessment of the observed concentration versus time curves. The area under the curve until the last quantifiable concentration (AUC0−t) was estimated by a linear up/log down method if ≥3 values were available and extrapolated to infinity (AUCinf), if the extrapolated part was <30 %. The terminal elimination half-life (T 1/2) was calculated as the ratio of loge^2 to the apparent terminal phase rate constant (λ z), determined through unweighted linear regression analysis on ≥3 log-transformed concentrations on the linear portion of the terminal slope, excluding the peak concentration. In general, points maximizing R ^2 up to at least 0.9 were included for linear regression.
For the detection of cIAP-1 in paraffin-embedded human tissue, a validated immunohistochemical (IHC) assay was used. […] Plasma biomarkers were measured through commercial ELISAs. All laboratory analyses were performed by MPI Research, Inc. (PK) and Mosaic Laboratory, LLC (PD).

cIAP-1 = target: T1, cIAP-1 (Homo sapiens, UniProt Q13490); assay: cIAP1 IHC in skin and tumor biopsies; type: in vivo
T1 construct: endogenous in cells; host or cells: peripheral blood mononuclear cells (PBMCs) of patients
T1 sequence (Q13490 whole entry): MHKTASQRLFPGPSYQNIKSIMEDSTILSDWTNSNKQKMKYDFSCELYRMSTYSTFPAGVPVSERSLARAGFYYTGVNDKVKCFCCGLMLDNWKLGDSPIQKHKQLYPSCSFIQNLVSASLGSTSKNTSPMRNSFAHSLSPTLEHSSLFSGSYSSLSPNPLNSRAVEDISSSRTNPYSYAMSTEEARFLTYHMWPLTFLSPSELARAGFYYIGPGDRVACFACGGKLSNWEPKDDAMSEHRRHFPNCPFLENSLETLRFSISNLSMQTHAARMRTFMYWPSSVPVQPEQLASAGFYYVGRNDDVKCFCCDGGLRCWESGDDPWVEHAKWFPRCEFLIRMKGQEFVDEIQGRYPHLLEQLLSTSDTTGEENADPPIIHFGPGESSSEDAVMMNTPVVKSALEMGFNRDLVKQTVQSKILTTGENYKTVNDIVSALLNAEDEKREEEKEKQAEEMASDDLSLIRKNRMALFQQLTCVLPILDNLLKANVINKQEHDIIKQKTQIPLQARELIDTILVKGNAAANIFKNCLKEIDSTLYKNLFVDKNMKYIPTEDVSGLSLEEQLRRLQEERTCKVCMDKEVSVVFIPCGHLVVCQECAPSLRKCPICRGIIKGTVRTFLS
Protocol: as §1
cIAP-1 levels were measured in tumor tissue and surrogate tissue as available. Peripheral blood mononuclear cells (PBMCs) were analyzed for DEBIO1143-induced cIAP-1 degradation. Plasma native cytokeratin-18 (M65) or caspase-3 generated cytokeratin-18 fragments (M30), interleukin 8 (IL8), chemokine ligand 2 (CCL2, MCP1), and tumor necrosis factor α (TNFα) were measured by ELISA as markers of epithelial cell death and inflammation on days 1 (predose, 1, 3, 6, and 12 h postdose), 2, and 5.
For the detection of cIAP-1 in paraffin-embedded human tissue, a validated immunohistochemical (IHC) assay was used. DEBIO1143-induced cIAP-1 degradation was measured in PBMCs using Western blot. Plasma biomarkers were measured through commercial ELISAs. All laboratory analyses were performed by MPI Research, Inc. (PK) and Mosaic Laboratory, LLC (PD).

[2] = dogs; cited from earlier work
[3] = parameters: method as in PMID 23813446; conditions: rats; cited from earlier work
[4] = oral, 180 mg, day 1, n=7, mean (SD)
[5] = oral, 180 mg, day 5, n=7, mean (SD)
[6] = oral, 260 mg, day 1, n=3, mean (SD)
[7] = oral, 260 mg, day 5, n=3, mean (SD)
[8] = oral, 400 mg, day 1, n=3, mean (SD)
[9] = oral, 400 mg, day 5, n=3, mean (SD)
[10] = oral, 600 mg, day 1, n=3, mean (SD)
[11] = oral, 600 mg, day 5, n=3, mean (SD)
[12] = oral, 900 mg, day 1, n=6, mean (SD)
[13] = oral, 900 mg, day 5, n=6, mean (SD)

Compound: CN[C@@H](C)C(=O)N[C@H]1CN(C(=O)CC(C)C)CC[C@H]2CC[C@@H](C(=O)NC(c3ccccc3)c3ccccc3)N2C1=O [DEBIO1143]
- AUC(0-t) [1, 4]: 10600 ng·h/mL
- Cmax [1, 4]: 2130 ng/mL
- half-life ([1]; oral, 180 mg, day 1, n=7, mean (SD), read-out: T 1/2 (converted)): 6.06 h
- Tmax ([1]; oral, 180 mg, day 1, n=7, median (min–max), read-out: T max): 2 h
- AUC(0-inf) [1, 5]: 9980 ng·h/mL
- AUC(0-t) [1, 5]: 7210 ng·h/mL
- Cmax [1, 5]: 2160 ng/mL
- half-life ([1]; oral, 180 mg, day 5, n=7, mean (SD), read-out: T 1/2 (converted)): 4.14 h
- Tmax ([1]; oral, 180 mg, day 5, n=7, median (min–max), read-out: T max): 2 h
- AUC(0-inf) [1, 6]: 17900 ng·h/mL
- AUC(0-t) [1, 6]: 16300 ng·h/mL
- Cmax [1, 6]: 2890 ng/mL
- half-life ([1]; oral, 260 mg, day 1, n=3, mean (SD), read-out: T 1/2 (converted)): 6.59 h
- Tmax ([1]; oral, 260 mg, day 1, n=3, median (min–max), read-out: T max): 3 h
- AUC(0-inf) [1, 7]: 11700 ng·h/mL
- AUC(0-t) [1, 7]: 10600 ng·h/mL
- Cmax [1, 7]: 2760 ng/mL
- half-life ([1]; oral, 260 mg, day 5, n=3, mean (SD), read-out: T 1/2 (converted)): 3.29 h
- Tmax ([1]; oral, 260 mg, day 5, n=3, median (min–max), read-out: T max): 2 h
- AUC(0-inf) [1, 8]: 27000 ng·h/mL
- AUC(0-t) [1, 8]: 25000 ng·h/mL
- Cmax [1, 8]: 5280 ng/mL
- half-life ([1]; oral, 400 mg, day 1, n=3, mean (SD), read-out: T 1/2 (converted)): 6.27 h
- Tmax ([1]; oral, 400 mg, day 1, n=3, median (min–max), read-out: T max): 1 h
- AUC(0-inf) [1, 9]: 26500 ng·h/mL
- AUC(0-t) [1, 9]: 20100 ng·h/mL
- Cmax [1, 9]: 5540 ng/mL
- half-life ([1]; oral, 400 mg, day 5, n=3, mean (SD), read-out: T 1/2 (converted)): 3.7 h
- Tmax ([1]; oral, 400 mg, day 5, n=3, median (min–max), read-out: T max): 0.5 h
- AUC(0-inf) [1, 10]: 28700 ng·h/mL
- AUC(0-t) [1, 10]: 27000 ng·h/mL
- Cmax [1, 10]: 5780 ng/mL
- half-life ([1]; oral, 600 mg, day 1, n=3, mean (SD), read-out: T 1/2 (converted)): 5.75 h
- Tmax ([1]; oral, 600 mg, day 1, n=3, median (min–max), read-out: T max): 1.1 h
- AUC(0-inf) [1, 11]: 25000 ng·h/mL
- AUC(0-t) [1, 11]: 20200 ng·h/mL
- Cmax [1, 11]: 7110 ng/mL
- half-life ([1]; oral, 600 mg, day 5, n=3, mean (SD), read-out: T 1/2 (converted)): 3.54 h
- Tmax ([1]; oral, 600 mg, day 5, n=3, median (min–max), read-out: T max): 1 h
- AUC(0-inf) [1, 12]: 61500 ng·h/mL
- AUC(0-t) [1, 12]: 56100 ng·h/mL
- Cmax [1, 12]: 10100 ng/mL
- half-life ([1]; oral, 900 mg, day 1, n=6, mean (SD), read-out: T 1/2 (converted)): 7.11 h
- Tmax ([1]; oral, 900 mg, day 1, n=6, median (min–max), read-out: T max): 1.5 h
- AUC(0-inf) [1, 13]: 47000 ng·h/mL
- AUC(0-t) [1, 13]: 36900 ng·h/mL
- Cmax [1, 13]: 10300 ng/mL
- half-life ([1]; oral, 900 mg, day 5, n=6, mean (SD), read-out: T 1/2 (converted)): 3.15 h
- Tmax ([1]; oral, 900 mg, day 5, n=6, median (min–max), read-out: T max): 1.5 h
- half-life ([1]; oral, all doses, read-out: Average T 1/2 (converted)): ~6 h
- Tmax ([1]; oral, all doses, read-out: Average t max): ~1 h
- half-life ([1]; oral, day 1, regardless of the dose, read-out: Mean T 1/2, range across doses): 5.2 to 7.1 h
- Tmax ([1]; po, after oral intake, read-out: Time to peak plasma concentrations): 1 to 3 h
- cIAP1 level in skin biopsies (IHC) (cIAP-1; 12 patients): trend for a decrease
- Immunoactivity of cIAP1 in tumor biopsy (IHC) (cIAP-1; melanoma patient, 120 mg/day, day 5, predose 150): 130
- Percentage of cIAP1-positive cells in tumor biopsies (cIAP-1; melanoma patient, 400 mg/d): only negligible effect
- No observable adverse event level (NOAEL) [2]: 1 mg/kg
- Oral bioavailability [3]: good
